Test results from patent US12409174B2, “Combination of zibotentan and dapagliflozin for the treatment of endothelin related diseases” (priority 2020, dated 2025).

What was measured:
[1] = Zibotentan and dapagliflozin blood concentrations, Experiment 2; conditions: male, Wistar, rat, Exp 2; for concentration at 4 h: 4 hr post first dose
Procedure: (§1) In the second experiment (Experiment 2), the effect of zibotentan and dapagliflozin (alone or in combination) on Hct concentration and Hb was determined. Seventy-two animals were randomized on BW and Hct concentration, 2 to 3 days prior to administration of study drugs into the following groups; 1) Vehicle, 2) Zibotentan (30 mg/kg), 3) Zibotentan (100 mg/kg), 4) Dapagliflozin (3 mg/kg), 5) Zibotentan (30 mg/kg)+Dapagliflozin (3 mg/kg) and 6) Zibotentan (100 mg/kg)+Dapagliflozin (3 mg/kg). For practical reasons, the study was conducted in two consecutive slots with 36 animals (6/group) in each slot. Compounds were administered p.o. QD for seven days. Blood samples for bioanalysis were collected at 4 and 24 hr after the first dose and 24 hr after the final dose for Hct concentration and Hb analysis on day three and seven as described for exp.1. Twenty-four hour urine was collected between the third and fourth dose. 24 hr food and water intake was measured between day 2-3 and between day 6-7. With two animals per cage, food intake and water intake per animal in a cage was assessed by dividing the food intake and water intake of a cage by two.
The blood and urine concentrations of zibotentan and dapagliflozin were determined by a bioanalytical method using liquid chromatography with mass spectrometric detection (LC-MS/MS).
Whole blood samples for bioanalysis of dapagliflozin and zibotentan followed the same procedure. A volume of 20 μL whole blood was precipitated with 150 μL acetonitrile containing internal standard and quickly vortexed, followed by a 20 min centrifugation at 3220 g and 4° C. The supernatant was transferred to a fresh deep well plate and diluted 1:1 with water prior to LC-MS analysis. Matrix matched calibration samples and blanks were treated in the same way as study samples. Zibotentan samples were further diluted twice and three times at a 1:10 ratio with 33% acetonitrile, to ensure all diluted samples were detectible within the calibration range.
Sample concentrations were determined against matrix-spiked calibration standards over a range of 0.010 μM-10.0 μM for dapagliflozin and 0.75 μM-376 μM for zibotentan, applying weighted linear regression (1/X^2) using Waters TargetLynx software version XS V4.2 SCN986.
Samples were analyzed by using reversed-phase high-pressure liquid chromatography with rapid gradient elution. Compounds were detected with Waters Xevo TQ-S triple quadrupole mass spectrometer (Waters Corporation, Milford, MA, USA). The chromatographic separation was performed by an ACQUITY BEH C18 1.8 μM, 2.1×50 mm column at a temperature of 40° C. Mobile phase A was 2% acetonitrile and 0.2% formic acid in water (A), and mobile phase B was 0.2% formic acid in acetonitrile (B). Separation was achieved using the following elution gradient: 0 min to 1.5 min, 4% B ramping up to 95% B; 1.5 min to 2.3 min, kept at 95% B; 2.3 min to 2.4 min, 95% B to 4% B and kept at 4% B until 2.7 min. The flow rate was 0.7 mL/min.
Samples were analyzed by reversed-phase high-pressure liquid chromatography with rapid gradient elution. Compounds were detected with Waters Xevo TQ-S triple quadrupole mass spectrometer (Waters Corporation, Milford, MA, USA). Mobile phase A was 1M ammonium acetate/acetonitrile/water (0.1/2/97.5, v/v/v), and mobile phase B was 1M ammonium acetate/acetonitrile (0.1/99.5, v/v). Separation was performed by an ACQUITY BEH C18 1.8 μM, 2.1×50 mm column from Waters using the following gradient: 0 min to 2.5 min, 4% B ramping to 60% B; 2.5 min to 2.9 min, 60% B to 95% B; 2.9 min to 3.4 min kept at 95% B, and from 3.4 to 3.5 min mobile phase B was returned to 4% B and kept at 4% B until 4 min. The flow rate was 0.6 mL/min and column temperature was 40° C.

[2] = Amount of dapagliflozin and zibotentan excreted in urine, Experiment 2; conditions: Exp 2, urine collected between days 3 and 4
Procedure: as §1

[3] = Effect of zibotentan, dapagliflozin and the combination on body weight, Experiment 2; conditions: Exp 2; for Prevention of BW gain compared to vehicle: administration period 7 days, FIG. 7
Procedure: as §1
(§2) The data for each feature measured was checked for a normal distribution and where appropriate a log transformation was applied to data with a non-normal distribution using R. Since the data were grouped by one factor Zibotentin doses or combined therapy, a one-way ANOVA was used to analyse traits measured at a single time point (GraphPad version 8 or R statistics package emmeans) and a linear mixed effects model (nlme package) in R was used to analyse multiple measures data for body weight. The differences between groups were tested using either a Dunnett test (emmeans package in R or GraphPad v8) when comparing treated groups to the vehicle group or a Tukey comparison (emmeans package in R or Graphpad v8.) for specific pairwise comparisons of treated groups. All model assumptions were checked using the model diagnostic plots in R statistics. Results are expressed as the Mean±standard error of the Mean (SEM) for pharmacodynamic parameters and Mean±standard deviation (SD) for compound concentration in blood and urine. Significance was set at p<0.05.
To assess the effect of the combined therapy on weight loss, body weight was measured every day and was compared using a linear mixed effects model.

[4] = test system: male Wistar rats fed a 4% salt diet; assay: Effect on plasma Na, K, glucose, urea and creatinine concentration, Experiment 2; conditions: Exp 2
Procedure: as §1
(§3) Plasma and Urine Albumin, Creatinine, Glucose, Urea, Potassium and Sodium levels were analyzed using an ABX Pentra 400 instrument (Horiba Medical, Irvine, California, USA) according to the manufacturers protocol.
as §2

[5] = test system: male Wistar rats fed a 4% salt diet; assay: Effect on urinary volume, glucose, Na, K, urea and creatinine in the urine, Experiment 2; type: in vivo; conditions: Exp 2; for Urine Creatinine / Urine K / Urine Na / Urine Urea / Urine volume: 24 hr urine between third and fourth dose; for Urine glucose excretion: FIG. 8A
Procedure: as §1, §3, §2

[6] = test system: male Wistar rats fed a 4% salt diet; assay: Effect of zibotentan and dapagliflozin on kidney and heart weight, Experiment 2; type: in vivo; conditions: Exp 2
Procedure: as §1, §2

[7] = test system: male Wistar rats fed a 4% salt diet; assay: 24 hr water and food intake, Experiment 2; type: in vivo; conditions: Exp 2; FIG. 8B and FIG. 8C
Procedure: as §1

## CCOc1ccc(Cc2cc([C@@H]3O[C@H](CO)[C@@H](O)[C@H](O)[C@H]3O)ccc2Cl)cc1 [Dapa, (1S)-1,5-anhydro-1-{4-chloro-3-[(4-ethoxyphenyl)methyl]phenyl}-D-glucitol]
[1]; whole blood, oral, 3 mg/kg, Dapagliflozin blood concentration, Dapa 3 mg/kg p.o. QD 7 days, 24 hr post last dose
  concentration at 24 h: 0.048 µM
[1]; whole blood, oral, 3 mg/kg, Dapagliflozin blood concentration, Dapa 3 mg/kg p.o. QD
  concentration at 4 h: 1.94 µM
[1]; whole blood, oral, 3 mg/kg, Dapagliflozin blood concentration, Dapa 3 mg/kg p.o. QD, 24 hr post first dose
  concentration at 24 h: 0.086 µM
[2]; Dapa 3 mg/kg p.o. QD
  Amount of dapagliflozin excreted in urine: 0.198 µmol
[3]; Dapa 3 mg/kg vs Vehicle
  Changes in body weight over the entire study, Difference: −0.03
[3]
  Prevention of BW gain compared to vehicle: prevented this BW gain
[4]
  Plasma Na, K, glucose, urea concentrations compared to vehicle: unaltered
[4]; Dapa 3 mg/kg p.o. QD 7 days
  Plasma Creatinine: 14.62 µM
  Plasma Glucose: 8.98 mmol/L
  Plasma K: 3.68 mmol/L
  Plasma Na: 137.6 mmol/L
  Plasma Urea: 4.34 mmol/L
[5]
  24-hour urine volume and urea excretion compared to vehicle: increased
  Urine Na, K and creatinine compared to vehicle: No change
  Urine glucose excretion: significantly increased
[5]; Dapa 3 mg/kg p.o. QD
  Urine Creatinine: 76.42 µmol
  Urine K: 1.40 mmol
  Urine Na: 12.60 mmol
  Urine Urea: 7.43 mmol
  Urine volume: 43.13 mL
[6]; Dapa 3 mg/kg p.o. QD 7 days
  Heart weight: 0.85 g
  Heart/tibia length: 22.08 mg/mm
  Kidney weight: 2.01 g
  Kidney/tibia length: 51.96 mg/mm
[7]
  Water and food intake compared to vehicle: increased

## COc1nc(C)cnc1NS(=O)(=O)c1cccnc1-c1ccc(-c2nnco2)cc1 [Zibo, N-(3-methoxy-5-methylpyrazin-2-yl)-2-[4-(1,3,4-oxadiazol-2-yl)phenyl]pyridine-3-sulfonamide]
[1]; in vivo, 30 mg/kg, Zibotentan blood concentration, Zibo 30 mg/kg p.o. QD 7 days, 24 hr post last dose
  concentration at 24 h: 22.9 µM
[1]; in vivo, 30 mg/kg, Zibotentan blood concentration, Zibo 30 mg/kg p.o. QD
  concentration at 4 h: 61.1 µM
[1]; in vivo, 30 mg/kg, Zibotentan blood concentration, Zibo 30 mg/kg p.o. QD, 24 hr post first dose
  concentration at 24 h: 7.8 µM
[1]; in vivo, 100 mg/kg, Zibotentan blood concentration, Zibo 100 mg/kg p.o. QD 7 days, 24 hr post last dose
  concentration at 24 h: 136 µM
[1]; in vivo, 100 mg/kg, Zibotentan blood concentration, Zibo 100 mg/kg p.o. QD
  concentration at 4 h: 161 µM
[1]; in vivo, 100 mg/kg, Zibotentan blood concentration, Zibo 100 mg/kg p.o. QD, 24 hr post first dose
  concentration at 24 h: 63.9 µM
[2]; Zibo 30 mg/kg p.o. QD
  Amount of zibotentan excreted in urine: 2.17 µmol
[2]; Zibo 100 mg/kg p.o. QD
  Amount of zibotentan excreted in urine: 3.21 µmol
[3]; Zibo 30 mg/kg vs Vehicle
  Changes in body weight over the entire study, Difference: 0.01
[3]; Zibo 100 mg/kg vs Vehicle
  Changes in body weight over the entire study, Difference: 0.01
[3]
  Prevention of BW gain compared to vehicle: did not
[4]
  Plasma Na, K, glucose, urea concentrations compared to vehicle: unaltered
[4]; Zibo 30 mg/kg p.o. QD 7 days
  Plasma Creatinine: 17.58 µM
  Plasma Glucose: 8.96 mmol/L
  Plasma K: 4.17 mmol/L
  Plasma Na: 139.1 mmol/L
  Plasma Urea: 4.47 mmol/L
[4]; Zibo 100 mg/kg monotreatment or in combination with Dapa 3 mg/kg, p<0.05
  Plasma creatinine compared to vehicle: significantly increase
[4]; Zibo 100 mg/kg p.o. QD 7 days
  Plasma Creatinine: 18.08 µM
  Plasma Glucose: 8.73 mmol/L
  Plasma K: 4.13 mmol/L
  Plasma Na: 138.4 mmol/L
  Plasma Urea: 4.25 mmol/L
[5]
  24-hour urine volume and urea excretion compared to vehicle: No difference
  Urine Na, K and creatinine compared to vehicle: No change
  Urine glucose excretion: no effect
[5]; Zibo 30 mg/kg p.o. QD
  Urine Creatinine: 71.33 µmol
  Urine K: 1.27 mmol
  Urine Na: 10.67 mmol
  Urine Urea: 4.61 mmol
  Urine volume: 19.08 mL
[5]; Zibo 100 mg/kg p.o. QD
  Urine Creatinine: 68.18 µmol
  Urine K: 1.16 mmol
  Urine Na: 10.03 mmol
  Urine Urea: 4.11 mmol
  Urine volume: 19.08 mL
[6]; Zibo 30 mg/kg p.o. QD 7 days
  Heart weight: 0.96 g
  Heart/tibia length: 24.75 mg/mm
  Kidney weight: 2.05 g
  Kidney/tibia length: 52.49 mg/mm
[6]; Zibo 30 mg/kg, seven days
  Heart weight compared to vehicle, with or without normalizing to tibia length: increased
[6]; Zibo 100 mg/kg p.o. QD 7 days
  Heart weight: 0.93 g
  Heart/tibia length: 23.82 mg/mm
  Kidney weight: 1.90 g
  Kidney/tibia length: 48.20 mg/mm
[7]
  Water and food intake compared to vehicle: unchanged
